Literature values, collected in PubChem BioAssay AID493017 (Abbott Labs, 2003).

Molecular target: Cyclin-dependent kinase 2 (Homo sapiens) (UniProt P24941)
Test: PubChem AID 493017
Conditions: WOMBAT literature affinities, multiple human targets; CDK2; gene CDK2; NCBI gene 1017

SMILES | IC50
O=[N+]([O-])c1ccc(S(=O)(=O)c2ccc(Oc3ccc(S(=O)(=O)c4ccc([N+](=O)[O-])cc4)cc3)cc2)cc1 | 1520 nM
OCCNc1cc(-c2[nH]c3nccnc3c2-c2ccc(F)cc2)ccn1 | 3500 nM
CCCCCOC(=O)c1ccc(N2C(=O)c3ccc(Oc4ccc(NC(C)=O)cc4)cc3C2=O)cc1 | 3300 nM
Cc1cc(Nc2ccc3[nH]ncc3c2)nc(NCC2CC2)n1 | 4100 nM
O=C(Nc1cccc2cccc(NC(=O)c3ccc([N+](=O)[O-])cc3)c12)c1ccc([N+](=O)[O-])cc1 | 2940 nM
c1ccc2c(c1)nc(SC1=NCCCN1)c1c3ccccc3[nH]c21 | 2160 nM
COC(=O)c1cc(=O)n2c(nc3cc(C(F)(F)F)ccc32)s1 | 7770 nM
COC(=O)c1c(NC(=O)Nc2ccc(Cl)cc2)sc2c1CCN(c1ncc(C(F)(F)F)cc1Cl)C2 | 8890 nM
O=C(Cc1nnc(NC(=O)c2ccc([N+](=O)[O-])c(Cl)c2)s1)NNC(=O)c1ccc([N+](=O)[O-])c(Cl)c1 | 1210 nM
O=C(Nc1ccc([N+](=O)[O-])cc1)C(Cc1ccccc1)N1C(=O)c2cccc3cccc(c23)C1=O (centres undefined) | 4190 nM
Cc1ccc(Nc2nc(-c3cc(C(C)(C)C)c(O)c(C(C)(C)C)c3)c(C)s2)cc1 | 1220 nM
CC(=O)c1c(O)c(C)c(O)c(Cc2c(O)c3c(c(C(=O)C=Cc4ccccc4)c2O)OC(C)(C)C=C3)c1O | 4550 nM
O=C(Nc1ccc(Cl)cc1)c1cc(Br)ccc1NS(=O)(=O)c1ccc(Br)c2nsnc12 | 3660 nM
COC(=O)NC1=Nc2cccc3cccc(c23)N1 | 4390 nM

Further compounds by falling IC50, results first:

IC50 | SMILES
7350 nM | CCOC(=O)Nc1nc2ccc(C=Cc3ccc(C)cc3)cc2[nH]1
6620 nM | CCC(C)c1cc(N)nc2nc3cc(C)c(C)cc3n12 (centres undefined)
4820 nM | Cc1cccc(NC(=O)Nc2ccc(Cc3ccc(NC(=O)Nc4cccc(C)c4)cc3)cc2)c1
4510 nM | Nc1ccc(C(=O)Nc2ccc(-c3nc4ccc(NC(=O)c5ccc(N)cc5)cc4[nH]3)cc2)cc1
3370 nM | O=C(Nc1ccccc1)Nc1sccc1OCc1ccc(Cl)cc1Cl
3000 nM | c1cnc2nc(-c3ccncc3)[nH]c2c1
2960 nM | Cc1ccc(C(=O)Nc2ccc3c(c2)Cc2cc(NC(=O)c4ccc(C)cc4)ccc2-3)cc1
2900 nM | Cc1nc(N=C(N)NC(=O)Nc2ccc(Cl)cc2)sc1Br
2830 nM | C#Cc1cccc(N2C(=O)c3ccc(Oc4cccc(N5C(=O)c6ccc([N+](=O)[O-])cc6C5=O)c4)cc3C2=O)c1
2650 nM | Cc1cc(Cc2ccc(NC(N)=S)c(C)c2)ccc1NC(N)=S
2580 nM | Oc1cc(O)cc(C=Cc2ccc(O)c(O)c2)c1
1860 nM | Nc1nc(NS(=O)(=O)c2ccc(C(F)(F)F)cc2)cc(-c2ccc(F)cc2)n1
1480 nM | N#CC(=Cc1cc(O)c(O)c(O)c1)C(N)=C(C#N)C#N
1410 nM | O=C1c2ccc([N+](=O)[O-])c3c([N+](=O)[O-])ccc(c23)C(=O)N1c1ccc(S(=O)(=O)Nc2cc(Cl)ccc2O)cc1
1370 nM | O=C(Nc1ccc(NC(=O)c2ccccc2[N+](=O)[O-])cc1)c1ccc(NC(=O)c2ccccc2[N+](=O)[O-])cc1
1310 nM | O=C(CSc1nnc(SCC(=O)Nc2nc(-c3ccccc3)cs2)s1)Nc1nc(-c2ccccc2)cs1
1150 nM | O=C(Nc1cc([N+](=O)[O-])ccc1O)c1ccc(Oc2ccc(C(=O)Nc3cc([N+](=O)[O-])ccc3O)cc2)cc1
1130 nM | S=c1[nH]c(=S)c2c3c(sc2[nH]1)CN(Cc1ccccc1)CC3
1120 nM | CN1CCc2nc(SCc3ccc(C(C)(C)C)cc3)c(C#N)c(-c3cccs3)c2C1
1100 nM | N#Cc1cnc(NC2CCCCC2)nc1N
